Assays:
[1] = target: T1, CYP2A6 (Homo sapiens, UniProt P11509); assay: CYP2A6 enzyme activity, coumarin 7-hydroxylation (MDI, TDI, DI assays), recombinant baculosomes
T1 sequence (P11509 1-494): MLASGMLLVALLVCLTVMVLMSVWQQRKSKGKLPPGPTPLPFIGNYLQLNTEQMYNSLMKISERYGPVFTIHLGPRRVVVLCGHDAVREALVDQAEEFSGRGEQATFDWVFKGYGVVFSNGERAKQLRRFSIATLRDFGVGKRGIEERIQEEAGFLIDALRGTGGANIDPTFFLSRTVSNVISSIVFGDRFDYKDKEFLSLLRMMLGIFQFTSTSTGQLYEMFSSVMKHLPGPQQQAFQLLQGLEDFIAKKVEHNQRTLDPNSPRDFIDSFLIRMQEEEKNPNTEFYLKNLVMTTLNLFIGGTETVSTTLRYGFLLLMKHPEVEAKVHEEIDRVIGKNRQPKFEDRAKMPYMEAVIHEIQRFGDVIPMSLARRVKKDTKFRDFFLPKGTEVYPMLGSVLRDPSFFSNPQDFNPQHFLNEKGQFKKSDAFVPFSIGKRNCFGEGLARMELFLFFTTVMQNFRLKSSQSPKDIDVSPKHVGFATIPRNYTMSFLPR
Method: (§1) The recombinant baculosomes with hyperexpressed cytochromes P450 (1A2, 2A6, 2C8, and 2D6) and coexpressed NADPH cytochrome P450 reductase and cytochrome b5 were used as a source of enzyme. Baculosomes were commercially obtained from Thermo Fisher Scientific (Waltham, MA, USA), and all other chemicals from Sigma-Aldrich if not otherwise indicated. A 1.0 M solution phosphate buffer of pH 7.4 was prepared in house. NADPH generating system was prepared of 0.1 M glucose-6-phosphate, 10 mg mL^−1 NADP^+, and 1000 IU mL^−1 glucose-6-phosphate dehydrogenase in ratio 100:50:2 (v/v/v).
The aromatic hydroxylation of coumarin at the position 7 was used as a marker reaction for CYP2A6. The incubation conditions were the same as for CYP1A2 enzyme (vide supra) unless otherwise stated. The final concentration of coumarin was 10 µM, while the incubation time was extended to 30 min.
HPLC-DAD analysis was conducted on the same system as the CYP1A2 enzyme with the following modifications: The gradient timetable (t/min, %B) was (0, 20), (1.5, 20), (10, 70), (11, 20), (17, 20), and the detection wavelength was 330 nm. The retention time of the substrate (coumarin) was 7.5 min, while the product (7-hydroxycoumarin) was detected at 4.8 min. The amount of generated product was determined as the area under the curve based on the calibration curve of the standard.
(§2) Three types of experiments were conducted to determine metabolism dependent inhibition, time dependent inhibition, and direct inhibition of CYP1A2, CYP2A6, CYP2C8, and CYP2D6 enzymes.
(§3) To determine metabolism dependent inhibition (MDI assay), the flavonoid was first preincubated with the enzyme with the addition of the generating system for 30 min, after which the marker substrate was added to determine residual enzyme activity (as described above for each enzyme).
(§4) If metabolism dependent inhibition was determined, time dependent inhibition and direct inhibition were tested. Time dependent inhibition (TDI assay) was assessed by preincubating the flavonoid and enzyme, without the generating system, after which residual activity was determined by adding the NADPH generating system along with the substrate (as described above for each enzyme).
(§5) The direct inhibition assay (DI assay) was conducted without preincubation, i.e., the NADPH generating system was added to the incubation mixture containing flavonoid and substrate following the experimental set-up described above for each individual cytochrome P450 enzyme.
(§6) Pure time dependent inhibitors require time to interact with the enzyme. Thus, TDI inhibitors will show a reduction of enzyme activity in assays with preincubations, i.e., the MDI and TDI assays, but not in the DI assay (no preincubation). […] DI inhibitors will reduce enzyme activity in all three assays (MDI, TDI, and DI).
All incubations were conducted in triplicate. The results are expressed as the residual activity of the enzyme, i.e., the percentage of product generated in incubation with the addition of flavonoid in ratio to the control without flavonoid. The statistical significance was tested with Student’s t-test in the program R (The R Project for Statistical Computing, Vienna, Austria).

[2] = system: CYP3A4; design: method as in PMID 30301254; conditions: statistical significance p < 0.1; cited from earlier work
[3] = system: CYP1A2; design: method as in ref 28 (Chang et al.); conditions: ref 28 (Chang et al.); read-out: Inhibition constant, competitive inhibition of CYP1A2-mediated 7-ethoxyresorufin O-dealkylation; cited from earlier work
[4] = target: T2, CYP1A2 (Homo sapiens, UniProt P05177); assay: CYP1A2 enzyme activity, phenacetin O-deethylation (MDI, TDI, DI assays), recombinant baculosomes
T2 sequence (P05177 1-516): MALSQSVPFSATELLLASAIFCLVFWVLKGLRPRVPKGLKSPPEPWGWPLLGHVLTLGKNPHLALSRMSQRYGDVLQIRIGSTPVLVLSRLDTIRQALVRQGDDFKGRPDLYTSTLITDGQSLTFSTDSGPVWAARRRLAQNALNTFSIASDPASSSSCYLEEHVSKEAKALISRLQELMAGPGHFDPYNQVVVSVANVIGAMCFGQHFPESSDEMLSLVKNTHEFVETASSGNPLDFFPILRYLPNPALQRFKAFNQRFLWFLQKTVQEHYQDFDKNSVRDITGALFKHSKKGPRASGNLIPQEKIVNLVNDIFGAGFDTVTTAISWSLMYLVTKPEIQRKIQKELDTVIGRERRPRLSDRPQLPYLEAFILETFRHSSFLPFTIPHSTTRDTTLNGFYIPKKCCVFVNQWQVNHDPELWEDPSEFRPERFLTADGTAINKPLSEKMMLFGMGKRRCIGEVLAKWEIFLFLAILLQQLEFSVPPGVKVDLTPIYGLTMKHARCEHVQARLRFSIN
Method: as §1
Phenacetine O-deethylation was used as a marker reaction for monitoring CYP1A2 enzyme activity (Figure 2). Incubations of 100 µL were conducted at the temperature of 37 °C. The pH of the incubation mixture was set at 7.4 using a potassium phosphate buffer (final concentration 50 mM). The total amount of CYP1A2 enzyme was 5 pmol, and the final concentration of substrate was 150 µM. Residual activity was determined by incubating the flavonoid (1 µM) with phenacetine as a substrate for 15 min, with or without preincubation, depending of the type of inhibition assay. Reactions were started by the addition of 15 µL of NADPH generating system, while the reactions were stopped by the addition of 1 mL 1% formic acid in acetonitrile. After centrifugation (10 min, 1900× g), the clear solution was transferred to a vial for HPLC analysis.
HPLC analysis was performed on Agilent 1100 instrument (Santa Clara, CA, USA) coupled with a diode array detector (DAD) on Luna C18 column (4.6 × 150 mm, 3 μm). The gradient method was used for separation. Mobile phase A consisted of water, acetonitrile, and glacial acetic acid in the volume ratio of 90:10:0.1, while mobile phase B contained the same solvents in the ratio 10:90:0.1. The following gradient timetable was used (t/min, %B): (0, 0), (2, 0), (13, 55), (14, 0), (20, 0). The flow rate was 1 mL/min, and chromatograms were recorded at 254 nm. Volume of incubation injected to the column was 15 µL. […] The amount of generated product (acetaminophen) was determined as the area under the curve based on the calibration curve of the standard.
as §2, §3, §4, §5, §6
All incubations were conducted in triplicate. The results are expressed as the residual activity of the enzyme, i.e., the percentage of product generated in incubation with the addition of flavonoid in ratio to the control without flavonoid.

## COc1cc(-c2oc3cc(O)cc(O)c3c(=O)c2O)ccc1O [isorhamnetin]
[1]; 1 µM flavonoid
  Inhibition of CYP2A6 enzyme activity: inhibited
[1]; human, pH 7.4
  inhibition at 30 min, 1 µM: 16 ± 5%
[2]
  Inhibition of CYP3A4 metabolic activity: inhibition
[3]
  Ki: 140 nM
[4]; 1 µM flavonoid
  Inhibition of CYP1A2 activity: inhibited
[4]; concluded from MDI, TDI, DI assays at 1 µM
  Type of CYP1A2 inhibition: reversible inhibitor
[4]; human, pH 7.4
  activity at 15 min, 1 µM: 8 ± 2%

Reference: publication PMC6749521, “The Effect of Flavonoid Aglycones on the CYP1A2, CYP2A6, CYP2C8 and CYP2D6 Enzymes Activity” (Molecules, 2019)
